Here are results for 13 compounds from patent publication US20110251194A1, “ANTINEOPLASTIC DERIVATIVES, PREPARATION THEREOF AND THERAPEUTIC USE THEREOF” (SANOFI-AVENTIS, priority 2008, published 2011).

As usually defined, the IC50 is the concentration that gives 50% inhibition. Usually melting point stands for the temperature, or range, at which the solid turns liquid.

Some results are limits rather than exact numbers.

The subject of the first data set is HCT116 tumour line (ref. ATCC-CCL247). The experiment in a line: MTS proliferation and cell viability test on the HCT116 tumour line. The class given is cell-based. The following applies: Homo sapiens, HCT-116, incubation of the tested compound for 72 h, 50% loss of proliferation and of cell viability. As for the experimental part:
The proliferation and the cell viability were determined in a test using 3-(4,5-dimethylthiazol-2-yl)-5-(3-carboxymethoxyphenyl)-2-(4-sulfophenyl)-2H-tetrazolium (MTS) according to Fujishita T. et al. Oncology 2003, 64(4), 399-406 (see page 401). In this test, the mitochondrial capacity of the living cells for converting the MTS into a coloured compound, after incubation of the tested compound for 72 h, is measured. IC50 (nM) denotes the concentration of compound which results in a 50% loss of proliferation and of cell viability.
The compounds of Table I were the subject of in vitro experimental tests on the HCT116 tumour line (ref. ATCC-CCL247).
`CCn1c(N)c(C(=O)NC)c(=O)c2ccc(-c3ccc(NC(=O)NCc4cccnc4)cc3)cc21` [No. 27, 2-Amino-1-ethyl-4-oxo-7-[4-(3-pyridin-3-ylmethylureido)phenyl]-1,4-dihydroquinoline-3-carboxylic acid methylamide] came in with an IC50 of 0.1 nM.

For the compound `CCn1c(N)c(C(N)=O)c(=O)c2ccc(-c3ccc(NC(=O)NCc4cccnc4)cc3)cc21` [No. 56, 2-Amino-1-ethyl-4-oxo-7-[4-(3-pyridin-3-ylmethylureido)phenyl]-1,4-dihydroquinoline-3-carboxylic acid amide], the IC50 was found to be 0.19 nM.

In the case of `CCn1c(N)c(C(=O)NC)c(=O)c2ccc(-c3ccc(NC(=O)NCc4cccnc4)cc3)nc21` [No. 1, 2-Amino-1-ethyl-4-oxo-7-[4-(3-pyridin-3-ylmethylureido)phenyl]-1,4-dihydro[1,8]naphthyridine-3-carboxylic acid methylamide], the IC50 was in the range of 0.2 to 0.5 nM.

`CCn1c(NCCN2CCCC2)c(C(=O)NCCN2CCCC2)c(=O)c2ccc(-c3ccc(NC(=O)NCc4cccnc4)cc3)cc21` [No. 61, 1-Ethyl-4-oxo-7-[4-(3-pyridin-3-ylmethylureido)phenyl]-2-(2-pyrrolidin-1-ylethylamino)-1,4-dihydroquinoline-3-carboxylic acid (2-pyrrolidin-1-ylethyl)amide] registered an IC50 of 0.1 nM.

As for `CCn1c(NCCN(C(C)C)C(C)C)c(C(=O)NCCN(C(C)C)C(C)C)c(=O)c2ccc(-c3ccc(NC(=O)NCc4cccnc4)cc3)cc21` [No. 60, 2-(2-Diisopropylaminoethylamino)-1-ethyl-4-oxo-7-[4-(3-pyridin-3-ylmethylureido)phenyl]-1,4-dihydroquinoline-3-carboxylic acid (2-diisopropylaminoethyl)amide], the IC50 was found to be 0.1 nM.

In turn, `CCOC(=O)c1c(N)n(CC)c2nc(-c3ccc(NC(=O)NCc4cccnc4)cc3)ccc2c1=O` [No. 10, 2-Amino-1-ethyl-4-oxo-7-[4-(3-pyridin-3-ylmethylureido)phenyl]-1,4-dihydro[1,8]naphthyridine-3-carboxylic acid ethyl ester] showed an IC50 below 1 nM.

As to `CCn1c(NCC2CCCO2)c(C(=O)NCC2CCCO2)c(=O)c2ccc(-c3ccc(NC(=O)NCc4cccnc4)cc3)cc21` (centres unmarked) [No. 59, 1-Ethyl-4-oxo-7-[4-(3-pyridin-3-ylmethylureido)phenyl]-2-[(tetrahydrofuran-2-ylmethyl)amino]-1,4-dihydroquinoline-3-carboxylic acid (tetrahydrofuran-2-ylmethyl)amide], the IC50 was found to be 0.47 nM.

Take `CCn1c(N)c(C(=O)NC)c(=O)c2cnc(-c3ccc(NC(=O)NCc4cccnc4)cc3)nc21` [No. 53, 7-Amino-8-ethyl-5-oxo-2-[4-(3-pyridin-3-ylmethylureido)phenyl]-5,8-dihydro-pyrido[2,3-d]pyrimidine-6-carboxylic acid methylamide]: inhibition was half-maximal at 6 nM (IC50).

Compound `CCn1c(N)c(C(=O)NC)c(=O)c2ccc(-c3ccc(NC(=O)/C=C/c4cccnc4)cc3)nc21` [No. 7, 2-Amino-1-ethyl-4-oxo-7-[4-((E)-3-pyridin-3-yl-acryloylamino)phenyl]-1,4-dihydro[1,8]naphthyridine-3-carboxylic acid methylamide] had an IC50 of 2 nM.

As for `CCn1c(NCCN2CCN(C)CC2)c(C(=O)NCCN2CCN(C)CC2)c(=O)c2ccc(-c3ccc(NC(=O)NCc4cccnc4)cc3)nc21` [No. 46, 1-Ethyl-2-[2-(4-methyl-piperazin-1-yl)-ethylamino]-4-oxo-7-[4-(3-pyridin-3-ylmethylureido)phenyl]-1,4-dihydro[1,8]naphthyridine-3-carboxylic acid [2-(4-methylpiperazin-1-yl)ethyl]amide], the concentration for half-maximal inhibition (IC50) turned out to be 1.9 nM.

`CCn1c(N)c(C(=O)O)c(=O)c2ccc(-c3ccc(NC(=O)NCc4cccnc4)cc3)nc21` [No. 13, 2-Amino-1-ethyl-4-oxo-7-[4-(3-pyridin-3-ylmethylureido)phenyl]-1,4-dihydro[1,8]naphthyridine-3-carboxylic acid]: the IC50 stood at 6 nM.

Turning to `CCn1c(N)c(C(=O)NCCN2CCOCC2)c(=O)c2ccc(-c3ccc(NC(=O)NCc4cccnc4)cc3)nc21` [No. 30, 2-Amino-1-ethyl-4-oxo-7-[4-(3-pyridin-3-ylmethylureido)phenyl]-1,4-dihydro[1,8]naphthyridine-3-carboxylic acid (2-morpholin-4-ylethyl)amide], the midpoint of inhibition, the IC50, lay at 0.1 nM.

Compound `CCn1c(NCCN2CCCC2C)c(C(=O)NCCN2CCCC2C)c(=O)c2ccc(-c3ccc(NC(=O)NCc4cccnc4)cc3)nc21` (centres unmarked) [No. 57, 1-Ethyl-2-[2-(2-methyl-pyrrolidin-1-yl)-ethylamino]-4-oxo-7-[4-(3-pyridin-3-ylmethylureido)phenyl]-1,4-dihydro[1,8]naphthyridine-3-carboxylic acid [2-(2-methylpyrrolidin-1-yl)ethyl]amide] showed an IC50 of 0.26 nM.

Test system in a further data set: not given
Experiment: not given
Conditions: not given
The compound `CCn1c(N)c(C(=O)NCCN2CCOCC2)c(=O)c2ccc(-c3ccc(NC(=O)NCc4cccnc4)cc3)nc21` [No. 30, 2-Amino-1-ethyl-4-oxo-7-[4-(3-pyridin-3-ylmethylureido)phenyl]-1,4-dihydro[1,8]naphthyridine-3-carboxylic acid (2-morpholin-4-ylethyl)amide] returned a melting point of 245 °C.
